Tests used:
Experiment in all cases: KINOMEscan binding assay
Conditions in all cases: read-out: % Ctrl @ 10000 nM
[1] = biological target: RSK2 Kin.Dom.1-N-terminal (Homo sapiens, UniProt P51812)
TGFBR2 = TGFBR2 (Homo sapiens, UniProt P37173)
NEK7 = NEK7 (Homo sapiens, UniProt Q8TDX7)
SRMS = SRMS (Homo sapiens, UniProt Q9H3Y6)
[2] = biological target: ABL1 (F317L) phosphorylated (Homo sapiens, UniProt P00519, F317L)
PIK3CA (H1047Y) = PIK3CA (H1047Y) (Homo sapiens, UniProt P42336, H1047Y)
BIKE = BIKE (Homo sapiens, UniProt Q9NSY1)
Chain of BIKE (Q9NSY1 whole entry): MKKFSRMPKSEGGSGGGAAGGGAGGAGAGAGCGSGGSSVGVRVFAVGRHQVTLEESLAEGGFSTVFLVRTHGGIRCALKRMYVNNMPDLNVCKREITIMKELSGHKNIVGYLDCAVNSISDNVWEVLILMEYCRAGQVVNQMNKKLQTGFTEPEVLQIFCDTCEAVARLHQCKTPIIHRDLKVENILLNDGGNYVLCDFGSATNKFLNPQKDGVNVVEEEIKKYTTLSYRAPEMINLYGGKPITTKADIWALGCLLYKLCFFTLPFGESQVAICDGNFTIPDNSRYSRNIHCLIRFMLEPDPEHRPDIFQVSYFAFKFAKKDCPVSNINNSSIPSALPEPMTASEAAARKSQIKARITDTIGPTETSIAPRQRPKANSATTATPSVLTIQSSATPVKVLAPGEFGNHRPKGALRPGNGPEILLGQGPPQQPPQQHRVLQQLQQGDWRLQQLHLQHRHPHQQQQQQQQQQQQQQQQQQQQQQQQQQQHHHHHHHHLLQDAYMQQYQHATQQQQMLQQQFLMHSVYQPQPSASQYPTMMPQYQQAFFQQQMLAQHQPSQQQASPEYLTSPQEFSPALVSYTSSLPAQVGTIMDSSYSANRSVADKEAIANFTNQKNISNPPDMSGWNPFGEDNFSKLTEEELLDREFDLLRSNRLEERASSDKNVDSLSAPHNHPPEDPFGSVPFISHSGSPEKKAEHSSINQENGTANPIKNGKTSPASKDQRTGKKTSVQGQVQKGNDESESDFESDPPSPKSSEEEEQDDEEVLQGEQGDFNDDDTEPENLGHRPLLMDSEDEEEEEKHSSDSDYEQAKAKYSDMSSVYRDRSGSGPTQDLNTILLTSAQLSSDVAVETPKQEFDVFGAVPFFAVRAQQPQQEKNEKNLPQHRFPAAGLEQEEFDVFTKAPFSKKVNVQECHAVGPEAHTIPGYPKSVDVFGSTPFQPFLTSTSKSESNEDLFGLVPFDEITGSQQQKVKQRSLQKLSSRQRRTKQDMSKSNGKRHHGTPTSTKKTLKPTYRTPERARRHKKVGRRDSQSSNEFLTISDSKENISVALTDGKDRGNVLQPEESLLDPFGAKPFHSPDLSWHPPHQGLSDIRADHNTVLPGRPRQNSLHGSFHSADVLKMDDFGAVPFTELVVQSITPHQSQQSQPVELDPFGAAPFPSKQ

[3] = biological target: EGFR (L747-E749del, A750P) (Homo sapiens, UniProt P00533, A750P/DEL747-749)
ULK3 = biological target: T1, ULK3 (Homo sapiens, UniProt Q6PHR2)
T1 construct: purchased DiscoveRx (KINOMEscan, LeadHunter Discovery services)

LIMK1 = LIMK1 (Homo sapiens, UniProt P53667)
[4] = biological target: ABL1 (F317I) non-phosphorylated (Homo sapiens, UniProt P00519, F317I)
EPHB2 = EPHB2 (Homo sapiens, UniProt P29323)
[5] = biological target: ABL1 (T315I) phosphorylated (Homo sapiens, UniProt P00519, T315I)
HCK = HCK (Homo sapiens, UniProt P08631)
PKN1 = PKN1 (Homo sapiens, UniProt Q16512)
GCN2 (Kin.Dom.2, S808G) = GCN2 (Kin.Dom.2, S808G) (Homo sapiens, UniProt Q9P2K8, S808G)
[6] = biological target: JAK1 (JH2domain-pseudokinase) (Homo sapiens, UniProt P23458)
MYLK2 = MYLK2 (Homo sapiens, UniProt Q9H1R3)
AURKC = AURKC (Homo sapiens, UniProt Q9UQB9)
PIK3CA (E542K) = PIK3CA (E542K) (Homo sapiens, UniProt P42336, E542K)
Chain of PIK3CA (E542K) (P42336 whole entry E542K): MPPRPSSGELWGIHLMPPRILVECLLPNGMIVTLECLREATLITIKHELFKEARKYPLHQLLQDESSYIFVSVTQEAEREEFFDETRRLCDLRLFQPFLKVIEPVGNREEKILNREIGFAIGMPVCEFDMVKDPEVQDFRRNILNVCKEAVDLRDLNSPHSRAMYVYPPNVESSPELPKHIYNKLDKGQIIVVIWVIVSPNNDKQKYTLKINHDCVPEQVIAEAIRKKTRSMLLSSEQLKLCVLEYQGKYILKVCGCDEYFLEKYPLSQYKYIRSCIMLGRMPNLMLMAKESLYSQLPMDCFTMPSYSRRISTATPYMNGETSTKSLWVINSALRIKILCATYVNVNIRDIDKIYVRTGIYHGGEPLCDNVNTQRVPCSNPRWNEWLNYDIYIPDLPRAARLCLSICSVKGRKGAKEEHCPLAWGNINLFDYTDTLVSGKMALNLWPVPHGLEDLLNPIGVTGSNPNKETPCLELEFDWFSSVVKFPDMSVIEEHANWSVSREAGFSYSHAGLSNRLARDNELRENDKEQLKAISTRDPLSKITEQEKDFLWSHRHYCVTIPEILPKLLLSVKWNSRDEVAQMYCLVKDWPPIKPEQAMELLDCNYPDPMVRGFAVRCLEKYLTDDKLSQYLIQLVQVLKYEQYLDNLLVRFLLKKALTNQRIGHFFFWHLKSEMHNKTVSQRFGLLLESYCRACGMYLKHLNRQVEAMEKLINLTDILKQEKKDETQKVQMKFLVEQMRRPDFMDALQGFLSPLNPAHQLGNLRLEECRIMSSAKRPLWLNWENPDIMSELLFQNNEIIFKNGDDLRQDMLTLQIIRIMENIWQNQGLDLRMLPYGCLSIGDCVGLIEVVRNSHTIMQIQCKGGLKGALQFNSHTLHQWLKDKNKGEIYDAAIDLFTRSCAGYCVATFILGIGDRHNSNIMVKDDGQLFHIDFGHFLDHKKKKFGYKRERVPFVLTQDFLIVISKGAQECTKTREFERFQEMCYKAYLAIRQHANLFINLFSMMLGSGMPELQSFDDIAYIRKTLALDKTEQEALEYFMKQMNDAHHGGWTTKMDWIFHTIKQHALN

ULK1 = biological target: T2, ULK1 (Homo sapiens, UniProt O75385)
T2 construct: purchased DiscoveRx (KINOMEscan, LeadHunter Discovery services)

ZAK = biological target: T3, ZAK (Homo sapiens, UniProt Q9NYL2)
T3 construct: purchased DiscoveRx (KINOMEscan, LeadHunter Discovery services)

MET = MET (Homo sapiens, UniProt P08581)
MLK2 = MLK2 (Homo sapiens, UniProt Q02779)
PKAC-beta = PKAC-beta (Homo sapiens, UniProt P22694)
IGF1R = IGF1R (Homo sapiens, UniProt P08069)
YSK4 = biological target: T4, YSK4 (Homo sapiens, UniProt Q56UN5)
T4 construct: purchased DiscoveRx (KINOMEscan, LeadHunter Discovery services)

AAK1 = AAK1 (Homo sapiens, UniProt Q2M2I8)
ERK1 = ERK1 (Homo sapiens, UniProt P27361)
ERBB3 = ERBB3 (Homo sapiens, UniProt P21860)
Chain of ERBB3 (P21860 20-1342): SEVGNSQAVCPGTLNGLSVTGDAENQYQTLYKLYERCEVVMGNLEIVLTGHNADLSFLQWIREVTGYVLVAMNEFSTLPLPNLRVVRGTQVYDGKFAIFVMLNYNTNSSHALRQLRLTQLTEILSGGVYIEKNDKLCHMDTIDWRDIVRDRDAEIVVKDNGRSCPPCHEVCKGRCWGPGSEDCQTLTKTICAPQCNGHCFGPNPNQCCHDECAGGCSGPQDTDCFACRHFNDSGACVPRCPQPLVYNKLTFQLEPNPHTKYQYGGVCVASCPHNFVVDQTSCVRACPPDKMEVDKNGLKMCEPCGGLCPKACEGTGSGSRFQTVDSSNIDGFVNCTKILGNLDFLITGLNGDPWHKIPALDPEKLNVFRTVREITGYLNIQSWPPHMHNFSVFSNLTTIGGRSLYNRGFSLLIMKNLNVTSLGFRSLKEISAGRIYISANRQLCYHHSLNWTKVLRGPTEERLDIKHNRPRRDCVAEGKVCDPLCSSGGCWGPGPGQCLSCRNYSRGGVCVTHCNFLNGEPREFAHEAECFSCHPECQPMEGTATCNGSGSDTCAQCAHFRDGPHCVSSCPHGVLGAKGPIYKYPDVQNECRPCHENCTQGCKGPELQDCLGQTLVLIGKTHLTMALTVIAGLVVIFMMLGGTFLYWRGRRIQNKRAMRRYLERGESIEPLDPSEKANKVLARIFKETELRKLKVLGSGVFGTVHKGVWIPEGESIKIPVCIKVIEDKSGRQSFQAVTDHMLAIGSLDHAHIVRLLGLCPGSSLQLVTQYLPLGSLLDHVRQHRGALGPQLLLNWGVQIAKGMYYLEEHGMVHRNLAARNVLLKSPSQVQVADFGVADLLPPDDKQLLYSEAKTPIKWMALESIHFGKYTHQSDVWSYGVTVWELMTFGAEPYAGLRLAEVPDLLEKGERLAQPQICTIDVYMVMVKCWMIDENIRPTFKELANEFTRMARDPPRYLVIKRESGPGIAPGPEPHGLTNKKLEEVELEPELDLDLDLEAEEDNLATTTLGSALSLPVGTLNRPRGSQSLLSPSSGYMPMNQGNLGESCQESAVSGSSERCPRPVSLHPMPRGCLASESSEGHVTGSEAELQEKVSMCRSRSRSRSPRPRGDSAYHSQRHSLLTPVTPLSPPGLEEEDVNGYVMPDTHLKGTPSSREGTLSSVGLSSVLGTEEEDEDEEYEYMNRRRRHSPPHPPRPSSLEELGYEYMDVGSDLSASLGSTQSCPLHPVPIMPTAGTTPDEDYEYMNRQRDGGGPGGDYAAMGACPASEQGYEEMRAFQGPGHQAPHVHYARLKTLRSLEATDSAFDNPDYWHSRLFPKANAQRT

PIK3CA (H1047L) = PIK3CA (H1047L) (Homo sapiens, UniProt P42336, H1047L)
Chain of PIK3CA (H1047L) (P42336 whole entry H1047L): as the sequence (P42336 whole entry E542K) above, with K542E, H1047L counted along it

EGFR (G719C) = EGFR (G719C) (Homo sapiens, UniProt P00533, G719C)
MELK = MELK (Homo sapiens, UniProt Q14680)
MST4 = MST4 (Homo sapiens, UniProt Q9P289)
TTK = TTK (Homo sapiens, UniProt P33981)
HIPK3 = HIPK3 (Homo sapiens, UniProt Q9H422)
MERTK = MERTK (Homo sapiens, UniProt Q12866)
TNIK = TNIK (Homo sapiens, UniProt Q9UKE5)
BRSK2 = BRSK2 (Homo sapiens, UniProt Q8IWQ3)
HIPK1 = HIPK1 (Homo sapiens, UniProt Q86Z02)
Chain of HIPK1 (Q86Z02 whole entry): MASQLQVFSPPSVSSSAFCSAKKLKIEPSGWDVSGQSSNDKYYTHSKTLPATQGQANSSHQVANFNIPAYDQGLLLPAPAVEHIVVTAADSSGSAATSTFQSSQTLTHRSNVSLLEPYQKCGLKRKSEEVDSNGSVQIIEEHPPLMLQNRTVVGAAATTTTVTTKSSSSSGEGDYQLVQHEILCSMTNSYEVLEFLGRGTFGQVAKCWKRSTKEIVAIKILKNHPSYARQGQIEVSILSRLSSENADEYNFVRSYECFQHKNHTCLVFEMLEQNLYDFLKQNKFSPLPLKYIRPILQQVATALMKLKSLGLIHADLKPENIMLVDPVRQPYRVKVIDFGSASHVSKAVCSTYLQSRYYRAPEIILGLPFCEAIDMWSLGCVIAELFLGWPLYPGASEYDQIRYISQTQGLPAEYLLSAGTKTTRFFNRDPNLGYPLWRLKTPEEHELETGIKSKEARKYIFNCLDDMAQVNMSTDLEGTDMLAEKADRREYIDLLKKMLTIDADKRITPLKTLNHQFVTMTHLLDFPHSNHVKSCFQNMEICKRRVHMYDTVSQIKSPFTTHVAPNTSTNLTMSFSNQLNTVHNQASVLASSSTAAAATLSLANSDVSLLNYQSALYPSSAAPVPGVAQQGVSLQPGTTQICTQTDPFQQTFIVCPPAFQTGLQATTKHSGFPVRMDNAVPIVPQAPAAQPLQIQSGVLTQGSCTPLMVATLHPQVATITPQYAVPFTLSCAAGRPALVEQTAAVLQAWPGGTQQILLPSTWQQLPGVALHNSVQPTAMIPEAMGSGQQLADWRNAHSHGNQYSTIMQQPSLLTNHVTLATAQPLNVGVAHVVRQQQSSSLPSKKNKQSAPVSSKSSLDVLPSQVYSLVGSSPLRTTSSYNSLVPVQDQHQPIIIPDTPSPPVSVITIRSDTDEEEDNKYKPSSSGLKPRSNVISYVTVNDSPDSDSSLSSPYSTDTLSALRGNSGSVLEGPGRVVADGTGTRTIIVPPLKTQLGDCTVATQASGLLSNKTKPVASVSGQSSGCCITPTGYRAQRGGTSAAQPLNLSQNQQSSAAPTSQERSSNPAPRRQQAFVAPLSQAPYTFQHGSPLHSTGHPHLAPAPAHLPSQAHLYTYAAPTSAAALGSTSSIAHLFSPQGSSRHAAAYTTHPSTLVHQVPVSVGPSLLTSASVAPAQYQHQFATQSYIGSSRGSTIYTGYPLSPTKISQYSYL

CLK1 = CLK1 (Homo sapiens, UniProt P49759)

Chain of PIK3CA (H1047Y) (P42336 whole entry H1047Y): as the sequence (P42336 whole entry E542K) above, with K542E, H1047Y counted along it
Chain of RSK2 Kin.Dom.1-N-terminal (P51812 68-327 limits assumed): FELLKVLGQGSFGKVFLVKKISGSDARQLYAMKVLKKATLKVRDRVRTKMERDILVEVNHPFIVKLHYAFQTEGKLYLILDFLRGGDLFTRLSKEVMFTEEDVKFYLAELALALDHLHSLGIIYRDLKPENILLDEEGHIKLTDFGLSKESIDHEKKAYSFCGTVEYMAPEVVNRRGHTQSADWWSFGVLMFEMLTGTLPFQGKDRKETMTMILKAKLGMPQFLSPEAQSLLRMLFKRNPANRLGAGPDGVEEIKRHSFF

Nc1ncc(-c2nc3ccccc3o2)c(-c2ccncc2)n1 [Comparative Compound 324, 5-(1,3-benzoxazol-2-yl)-4-(pyridine-4-yl)pyrimidin-2-amine]
remaining binding at 10 µM [1]: 80% | remaining binding at 10 µM (TGFBR2): 100% | remaining binding at 10 µM (NEK7): 100% | remaining binding at 10 µM (SRMS): 100% | remaining binding at 10 µM [2]: 75% | remaining binding at 10 µM (PIK3CA (H1047Y)): 72% | remaining binding at 10 µM (BIKE): 100% | remaining binding at 10 µM [3]: 64% | remaining binding at 10 µM (ULK3): 100% | remaining binding at 10 µM (LIMK1): 100% | remaining binding at 10 µM [4]: 90% | remaining binding at 10 µM (EPHB2): 99% | remaining binding at 10 µM [5]: 85% | remaining binding at 10 µM (HCK): 100% | remaining binding at 10 µM (PKN1): 100% | remaining binding at 10 µM (GCN2 (Kin.Dom.2, S808G)): 98% | remaining binding at 10 µM [6]: 17% | remaining binding at 10 µM (MYLK2): 100% | remaining binding at 10 µM (AURKC): 100% | remaining binding at 10 µM (PIK3CA (E542K)): 98% | remaining binding at 10 µM (ULK1): 93% | remaining binding at 10 µM (ZAK): 79% | remaining binding at 10 µM (MET): 91% | remaining binding at 10 µM (MLK2): 100% | remaining binding at 10 µM (PKAC-beta): 95% | remaining binding at 10 µM (IGF1R): 100% | remaining binding at 10 µM (YSK4): 88% | remaining binding at 10 µM (AAK1): 83% | remaining binding at 10 µM (ERK1): 96% | remaining binding at 10 µM (ERBB3): 92% | remaining binding at 10 µM (PIK3CA (H1047L)): 100% | remaining binding at 10 µM (EGFR (G719C)): 64% | remaining binding at 10 µM (MELK): 80% | remaining binding at 10 µM (MST4): 68% | remaining binding at 10 µM (TTK): 100% | remaining binding at 10 µM (HIPK3): 91% | remaining binding at 10 µM (MERTK): 99% | remaining binding at 10 µM (TNIK): 78% | remaining binding at 10 µM (BRSK2): 100% | remaining binding at 10 µM (HIPK1): 64% | remaining binding at 10 µM (CLK1): 80%

CNc1c(C(N)=O)c2ccccn2c1C(=O)c1ccc(F)cc1 [Compound A, 2-methyl-amino-3-[(4-fluorophenyl)carbonyl]indolizine-1-carboxamide]
remaining binding at 10 µM [1]: 59% | remaining binding at 10 µM (TGFBR2): 100% | remaining binding at 10 µM (NEK7): 100% | remaining binding at 10 µM (SRMS): 93% | remaining binding at 10 µM [2]: 46% | remaining binding at 10 µM (PIK3CA (H1047Y)): 80% | remaining binding at 10 µM (BIKE): 85% | remaining binding at 10 µM [3]: 13% | remaining binding at 10 µM (ULK3): 100% | remaining binding at 10 µM (LIMK1): 100% | remaining binding at 10 µM [4]: 85% | remaining binding at 10 µM (EPHB2): 82% | remaining binding at 10 µM [5]: 100% | remaining binding at 10 µM (HCK): 65% | remaining binding at 10 µM (PKN1): 88% | remaining binding at 10 µM (GCN2 (Kin.Dom.2, S808G)): 66% | remaining binding at 10 µM [6]: 71% | remaining binding at 10 µM (MYLK2): 100% | remaining binding at 10 µM (AURKC): 100% | remaining binding at 10 µM (PIK3CA (E542K)): 90% | remaining binding at 10 µM (ULK1): 86% | remaining binding at 10 µM (ZAK): 92% | remaining binding at 10 µM (MET): 100% | remaining binding at 10 µM (MLK2): 91% | remaining binding at 10 µM (PKAC-beta): 63% | remaining binding at 10 µM (IGF1R): 99% | remaining binding at 10 µM (YSK4): 73% | remaining binding at 10 µM (AAK1): 62% | remaining binding at 10 µM (ERK1): 100% | remaining binding at 10 µM (ERBB3): 62% | remaining binding at 10 µM (PIK3CA (H1047L)): 100% | remaining binding at 10 µM (EGFR (G719C)): 32% | remaining binding at 10 µM (MELK): 71% | remaining binding at 10 µM (MST4): 65% | remaining binding at 10 µM (TTK): 92% | remaining binding at 10 µM (HIPK3): 79% | remaining binding at 10 µM (MERTK): 55% | remaining binding at 10 µM (TNIK): 53% | remaining binding at 10 µM (BRSK2): 94% | remaining binding at 10 µM (HIPK1): 51% | remaining binding at 10 µM (CLK1): 67%

— US10815230B2, “Casein kinase 1 delta inhibitor” (ELECTROPHORETICS LIMITED, priority 2015, dated 2020)
